For experiment [1], the species on record is Bos taurus. The experiment in a line: Induction of bovine brain tubulin assembly at 1 mg/ml of tubulin concentration.
For experiment [2], the species on record is Bos taurus. The experiment in a line: Ratio of compound ED50 to taxol ED50 for bovine brain tubulin assembly at 1 mg/ml of tubulin concentration.
For experiment [3], the species on record is Bos taurus. The experiment in a line: Induction of bovine brain tubulin assembly at 1.5 mg/ml of tubulin concentration.
The species named for experiment [4] is Bos taurus. The experiment in a line: Ratio of compound ED50 to taxol ED50 for bovine brain tubulin assembly at 1.5 mg/ml of tubulin concentration.
For the next experiment, the system named is HOP-62. In words: Cytotoxicity against human HOP62 cells. In kind it is functional.
Another experiment has as its system NCI-H460. The experiment in a line: Cytotoxicity against human NCI-H460 cells. In kind it is functional.
In the next experiment the test system is DMS-114. In words: Cytotoxicity against human DMS114 cells. In kind it is functional. The following applies: for CC50: read-out: LC50 (the source's name).
Another experiment deals with COLO 205. The experiment in a line: Cytotoxicity against human COLO205 cells. In kind it is functional. The following applies: for CC50: read-out: LC50 (the source's name).
The subject of another experiment is SF-539. In words: Cytotoxicity against human SF539 cells. In kind it is functional.
A further experiment deals with SNB-75. The experiment in a line: Cytotoxicity against human SNB75 cells. In kind it is functional. The following applies: for CC50: read-out: LC50 (the source's name).
The subject of the next experiment is OVCAR-3. In words: Cytotoxicity against human OVCAR-3 cells. In kind it is functional.

In the case of `CCCCCC(=O)N[C@@H](c1ccccc1)[C@@H](O)C(=O)O[C@H]1C[C@@]2(O)[C@@H](OC(=O)c3ccccc3)[C@@H]3[C@]4(OC(C)=O)CO[C@@H]4C[C@H](O)[C@@]3(C)C(=O)[C@H](O)C(=C1C)C2(C)C`, in the experiment filed under Bos taurus [1], the ED50 was 2960 nM. Also, the Ratio ED50 in the experiment listed under Bos taurus [2] was 2.57.
The corresponding values for `CCCCCC(=O)N(C)[C@@H](c1ccccc1)[C@@H](O)C(=O)O[C@H]1C[C@@]2(O)[C@@H](OC(=O)c3ccccc3)[C@@H]3[C@]4(OC(C)=O)CO[C@@H]4C[C@H](O)[C@@]3(C)C(=O)[C@H](OC(C)=O)C(=C1C)C2(C)C` are 1910 nM and 1.66.
One may read the GI50 as the concentration that inhibits growth by half. Low values mean greater sensitivity of the cells, high ones lower sensitivity of the cells. The term TGI denotes the concentration giving total growth inhibition. Low readings indicate greater sensitivity of the cells, high ones lower sensitivity of the cells. By LC50 is commonly meant the concentration lethal to half of the exposed cells or organisms. Higher therefore signals lower toxicity. On to `CCCCCC(=O)N[C@@H](c1ccccc1)[C@@H](O)C(=O)O[C@H]1C[C@@]2(O)[C@@H](OC(=O)c3ccccc3)[C@@H]3[C@]4(OC(C)=O)CO[C@@H]4C[C@H](O)[C@@]3(C)C(=O)[C@H](OC(C)=O)C(=C1C)C2(C)C` [TAXOL C], for which the ED50 came out at 1400 nM in the experiment listed under Bos taurus [3] and 1000 nM in the experiment listed under Bos taurus [1]. Moreover, the figures for the Ratio ED50 in the experiment filed under Bos taurus [4] and in the experiment filed under Bos taurus [2] were 1.82 and 1.05, respectively. Further, the GI50 in the experiment on HOP-62, in the experiment with NCI-H460, in the experiment with DMS-114, in the experiment on COLO 205, in the experiment on SF-539 and in the experiment with SNB-75 was less than 10 nM throughout. The same molecule returned a GI50 in the experiment on OVCAR-3 of less than 10 nM. This molecule showed an LC50 (concentration killing 50% of cells) with HOP-62 of 32000 nM. Further, the TGI in the experiment with HOP-62 was 12.1 nM; in the experiment on NCI-H460, 349 nM; with DMS-114, 23.8 nM; with COLO 205, 22.9 nM; in the experiment with SF-539 it was less than 10 nM; with SNB-75, 19.2 nM. In addition, the TGI in the experiment with OVCAR-3 is less than 10 nM. The LC50 in the experiment on NCI-H460 was 69800 nM; in the experiment on OVCAR-3 it was more than 100000 nM. Further, the CC50 is 21700 nM with DMS-114, 23300 nM with COLO 205 and more than 100000 nM with SNB-75.
Take `CCCC(=O)N[C@@H](c1ccccc1)[C@@H](O)C(=O)O[C@H]1C[C@@]2(O)[C@@H](OC(=O)c3ccccc3)[C@@H]3[C@]4(OC(C)=O)CO[C@@H]4C[C@H](O)[C@@]3(C)C(=O)[C@H](OC(C)=O)C(=C1C)C2(C)C`: the ED50 in the experiment listed under Bos taurus [1] was found to be 2350 nM. In addition, the Ratio ED50 in the experiment listed under Bos taurus [2] came to 2.04.
For `C/C=C(\C)C(=O)N[C@@H](c1ccccc1)[C@@H](O)C(=O)O[C@H]1C[C@@]2(O)[C@@H](OC(=O)c3ccccc3)[C@@H]3[C@]4(OC(C)=O)CO[C@@H]4C[C@H](O)[C@@]3(C)C(=O)[C@H](OC(C)=O)C(=C1C)C2(C)C`, the ED50 in the experiment listed under Bos taurus [3] came to 950 nM; in the experiment filed under Bos taurus [1] it was 850 nM. Also, the Ratio ED50 in the experiment listed under Bos taurus [4] was 1.11; in the experiment listed under Bos taurus [2] it was 1.05.
Turning to `CC(=O)O[C@H]1C(=O)[C@@]2(C)[C@H]([C@H](OC(=O)c3ccccc3)[C@]3(O)C[C@H](OC(=O)[C@H](O)[C@@H](NC(=O)c4ccccc4)c4ccccc4)C(C)=C1C3(C)C)[C@]1(OC(C)=O)CO[C@@H]1C[C@@H]2O` [PACLITAXEL], the figures for the ED50 in the experiment listed under Bos taurus [3] and in the experiment listed under Bos taurus [1] were 760 nM and 950 nM, respectively. In addition, the GI50 with HOP-62 amounted to 67.1 nM; in the experiment on NCI-H460, 21.9 nM; in the experiment on DMS-114, 12.3 nM; with COLO 205, 1.76 nM; with SF-539 it was 3.66 nM; in the experiment on SNB-75, 8.08 nM. This molecule also registered a concentration for 50% growth inhibition (GI50) in the experiment on OVCAR-3 of 19.7 nM. Besides, the TGI with HOP-62 was more than 1000 nM; in the experiment on NCI-H460, more than 1000 nM; in the experiment with DMS-114 it was 61.2 nM; with COLO 205, 43.2 nM; in the experiment with SF-539, 89.9 nM; in the experiment with SNB-75, 77.3 nM. The molecule further registered a TGI with OVCAR-3 of 48.7 nM. The CC50 with DMS-114 is more than 1000 nM; in the experiment on COLO 205, 145 nM; in the experiment on SF-539 (read-out: LC50 (the source's name)) it was more than 25000 nM; in the experiment on SNB-75 it was more than 1000 nM.

Values taken from ChEMBL document CHEMBL1149031, “New bioactive taxoids from cell cultures of Taxus baccata” (1994).
